For seven compounds, EC50 and Emax results are on record in patent publication US10988523B2, “Modified lipidated Relaxin B chain peptides and their therapeutic use” (Sanofi, priority 2018, dated 2021).

SMILES strings stand for the structures. *1 amine or outer side, *2 acyl side, *3 side chain or, on linkers, in order; H or OH if unused. Where a SMILES comes first, the peptide text is derived from it. Side-chain parts run from the residue outwards. [ ]: non-standard residue; d: D form. The star is where a group is joined. X12 = CCCCCCCCCCCCCCCC(=O)N[C@@H](CCC(=O)N[C@@H](CCC(=O)N[C@@H](CCC(=O)NCCCC[C@H](NC(=O)COCC(=O)NCCCOCCOCCOCCCNC(=O)COCC(=O)NCCCOCCOCCOCCCN*)C(N)=O)C(=O)O)C(=O)O)C(=O)O; X13 = CCCCCCCCCCCCCCCC(=O)N[C@@H](CCC(=O)N[C@@H](CCC(=O)N[C@@H](CCC(=O)NCCCC[C@H](NC(=O)COCC(=O)NCCCOCCOCCOCCCN*)C(N)=O)C(=O)O)C(=O)O)C(=O)O; PEG12 = NCCOCCOCCOCCOCCOCCOCCOCCOCCOCCOCCOCCOCCC(=O)O; γGlu = O=C(O)[C@H](CCC(=O)[*:2])N[*:1]; 1Nal = N[C@@H](Cc1cccc2ccccc12)C(=O)O; Stearoyl = CCCCCCCCCCCCCCCCCC(=O)*; Palmitoyl = CCCCCCCCCCCCCCCC(=O)*; Cit = NC(=O)NCCC[C@H](N)C(=O)O; αMeK = C[C@](N)(CCCCN)C(=O)O; Nle = CCCC[C@H](N)C(=O)O; AEEA = NCCOCCOCC(=O)O; Aib = CC(C)(N)C(=O)O

This test deals with T1, RXFP1 (Homo sapiens, UniProt Q9HBX9).
T1 construct: OVCAR5 cells expressing endogenous RXFP1; endogenous in cells; host or cells: OVCAR5 cells
T1 sequence (Q9HBX9 1-757): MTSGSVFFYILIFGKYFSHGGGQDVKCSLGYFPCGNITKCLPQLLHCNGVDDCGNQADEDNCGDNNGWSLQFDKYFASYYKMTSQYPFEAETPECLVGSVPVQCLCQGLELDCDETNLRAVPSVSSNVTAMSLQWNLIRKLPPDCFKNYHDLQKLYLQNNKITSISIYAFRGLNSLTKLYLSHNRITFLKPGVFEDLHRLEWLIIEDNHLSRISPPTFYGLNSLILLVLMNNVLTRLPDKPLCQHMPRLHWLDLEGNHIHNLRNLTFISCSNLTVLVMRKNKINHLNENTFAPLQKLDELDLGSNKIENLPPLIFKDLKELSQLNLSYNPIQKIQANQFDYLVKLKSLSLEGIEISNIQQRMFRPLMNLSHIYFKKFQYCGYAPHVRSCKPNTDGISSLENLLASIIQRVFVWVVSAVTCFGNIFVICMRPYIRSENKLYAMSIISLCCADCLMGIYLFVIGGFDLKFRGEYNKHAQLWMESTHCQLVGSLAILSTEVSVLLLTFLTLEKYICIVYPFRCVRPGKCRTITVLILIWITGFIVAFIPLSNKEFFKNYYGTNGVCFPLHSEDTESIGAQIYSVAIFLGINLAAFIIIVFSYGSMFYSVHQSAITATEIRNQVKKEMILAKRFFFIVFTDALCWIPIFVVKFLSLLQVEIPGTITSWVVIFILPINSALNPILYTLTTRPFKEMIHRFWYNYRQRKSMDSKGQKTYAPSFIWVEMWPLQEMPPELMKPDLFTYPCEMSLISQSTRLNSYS
The test is described as follows: OVCAR5 cAMP assay (HTRF), RXFP1 agonist activity. The test is classed as cell-based. Particulars: for EC50: OVCAR5 cells, cAMP HTRF, read-out: EC50 (nM), OVCAR 5 cells (cAMP); for Emax: OVCAR-5, maximal cAMP relative to H2-relaxin maximum (100%), read-out: EMax, OVCAR 5 cells (cAMP). The gist of the method:
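OVCAR5 cells (endogenous RXFP1) pretreated 40 min at 37° C with 1 mM IBMX, then exposed to peptides in serum-free medium for 30 min at 37° C. Lysate cAMP read by HTRF; EC50 from variable-slope sigmoidal fit; Emax as % of H2-relaxin maximal cAMP in same run.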
On the technique in general: Changes in cAMP serve as a functional read-out for many G protein-coupled receptors.

Consider `CCCCCCCCCCCCCCCCCC(=O)N[C@@H](CCC(=O)NCCOCCOCC(=O)NCCOCCOCC(=O)N[C@@H](CCC(=O)N[C@@H](CCC(=O)NCCCC[C@H](NC(=O)[C@H](CCCCN)NC(=O)[C@H](CCCNC(=N)N)NC(=O)C(C)(C)NC(=O)[C@H](CO)NC(=O)[C@H](Cc1c[nH]c2ccccc12)NC(=O)[C@@H](NC(=O)[C@H](CO)NC(=O)[C@H](CCCC)NC(=O)CNC(=O)[C@H](CCC(=O)O)NC(=O)C(C)(C)NC(=O)C(C)(C)NC(=O)[C@@H](NC(=O)[C@H](CCC(N)=O)NC(=O)[C@H](C)NC(=O)[C@H](CCCNC(=N)N)NC(=O)[C@@H](NC(=O)[C@H](CCCCN)NC(=O)[C@H](CCC(=O)O)NC(=O)[C@H](CCCNC(=N)N)NC(=O)CNC(=O)[C@H](CCC(=O)O)NC(=O)[C@H](CC(C)C)NC(C)=O)C(C)C)[C@@H](C)CC)[C@@H](C)O)C(N)=O)C(=O)O)C(=O)O)C(=O)O` [compound 104] (Ac-LEGREKVRAQI[Aib][Aib]EG[Nle]STWS[Aib]RKK([γGlu-γGlu-AEEA-AEEA-γGlu-Stearoyl])-NH2), for which the EC50 is 0.16 nM and the Emax is 89%.

On to `CCCCCCCCCCCCCCCCCC(=O)N[C@@H](CCC(=O)N[C@@H](CCC(=O)N[C@@H](CCC(=O)NCCOCCOCC(=O)NCCOCCOCC(=O)NCCOCCOCC(=O)NCCCC[C@H](NC(=O)[C@H](CCCCNC(C)=O)NC(=O)[C@H](CCCCN)NC(=O)[C@H](CCCNC(=N)N)NC(=O)C(C)(C)NC(=O)[C@H](CO)NC(=O)[C@H](Cc1cccc2ccccc12)NC(=O)[C@@H](NC(=O)[C@H](CO)NC(=O)[C@H](CCCC)NC(=O)CNC(=O)[C@H](CCC(=O)O)NC(=O)C(C)(C)NC(=O)C(C)(C)NC(=O)[C@@H](NC(=O)[C@H](CCCCNC(C)=O)NC(=O)[C@H](C)NC(=O)[C@H](CCCNC(=N)N)NC(=O)[C@@H](NC(=O)[C@H](CCCCN)NC(=O)[C@H](CCC(=O)O)NC(=O)[C@H](CCCNC(=N)N)NC(=O)CNC(=O)[C@H](CCC(=O)O)NC(=O)[C@H](CC(C)C)NC(C)=O)C(C)C)[C@@H](C)CC)[C@@H](C)O)C(N)=O)C(=O)O)C(=O)O)C(=O)O` [compound 84] (Ac-LEGREKVRAK(Ac)I[Aib][Aib]EG[Nle]ST[1Nal]S[Aib]RKK(Ac)K([AEEA-AEEA-AEEA-γGlu-γGlu-γGlu-Stearoyl])-NH2), for which the EC50 turned out to be 0.09 nM and the Emax is 76%. Take `CCCCCCCCCCCCCCCC(=O)N[C@@H](CCC(=O)N[C@@H](CCC(=O)N[C@@H](CCC(=O)NCCCC[C@H](NC(=O)COCC(=O)NCCCOCCOCCOCCCNC(=O)[C@H](CCCCNC(C)=O)NC(=O)[C@H](CCCCN)NC(=O)[C@H](CCCNC(=N)N)NC(=O)C(C)(C)NC(=O)[C@H](CO)NC(=O)[C@H](Cc1c[nH]c2ccccc12)NC(=O)[C@@H](NC(=O)[C@H](CO)NC(=O)[C@H](CCC(N)=O)NC(=O)CNC(=O)[C@H](CCC(=O)O)NC(=O)C(C)(C)NC(=O)C(C)(C)NC(=O)[C@@H](NC(=O)[C@H](CCCCNC(C)=O)NC(=O)[C@H](C)NC(=O)[C@H](CCCNC(=N)N)NC(=O)[C@@H](NC(=O)[C@H](CCCCN)NC(=O)[C@H](CCC(=O)O)NC(=O)[C@H](CCCNC(=N)N)NC(=O)CNC(=O)[C@H](CCC(=O)O)NC(=O)[C@H](CC(C)C)NC(C)=O)C(C)C)[C@@H](C)CC)[C@@H](C)O)C(N)=O)C(=O)O)C(=O)O)C(=O)O` [compound 176] (Ac-LEGREKVRAK(Ac)I[Aib][Aib]EGQSTWS[Aib]RKK(Ac)-X13): the Emax was 90%. As for `CCCCCCCCCCCCCCCCCC(=O)N[C@@H](CCC(=O)N[C@@H](CCC(=O)N[C@@H](CCC(=O)NCCOCCOCC(=O)NCCOCCOCC(=O)NCCOCCOCC(=O)NCCCC[C@H](NC(=O)[C@H](CCCCNC(C)=O)NC(=O)[C@H](CCCCN)NC(=O)[C@H](CCCNC(N)=O)NC(=O)[C@](C)(CCCCN)NC(=O)[C@H](CO)NC(=O)[C@H](Cc1c[nH]c2ccccc12)NC(=O)[C@@H](NC(=O)[C@H](CO)NC(=O)[C@H](CCCC)NC(=O)CNC(=O)[C@H](CCC(=O)O)NC(=O)C(C)(C)NC(=O)C(C)(C)NC(=O)[C@@H](NC(=O)[C@H](CCCCNC(C)=O)NC(=O)[C@H](C)NC(=O)[C@H](CCCNC(=N)N)NC(=O)[C@@H](NC(=O)[C@H](CCCCN)NC(=O)[C@H](CCC(=O)O)NC(=O)[C@H](CCCNC(=N)N)NC(=O)CNC(=O)[C@H](CCC(=O)O)NC(=O)[C@H](CC(C)C)NC(C)=O)C(C)C)[C@@H](C)CC)[C@@H](C)O)C(N)=O)C(=O)O)C(=O)O)C(=O)O` [compound 129] (Ac-LEGREKVRAK(Ac)I[Aib][Aib]EG[Nle]STWS[αMeK][Cit]KK(Ac)K([AEEA-AEEA-AEEA-γGlu-γGlu-γGlu-Stearoyl])-NH2), the EC50 came out at 1 nM and the Emax was determined as 89%.

As to `CCCCCCCCCCCCCCCC(=O)N[C@@H](CCC(=O)N[C@@H](CCC(=O)N[C@@H](CCC(=O)NCCCC[C@H](NC(=O)COCC(=O)NCCCOCCOCCOCCCNC(=O)COCC(=O)NCCCOCCOCCOCCCNC(=O)[C@H](CCCCNC(C)=O)NC(=O)[C@H](CCCCN)NC(=O)[C@H](CCCNC(=N)N)NC(=O)C(C)(C)NC(=O)[C@H](CO)NC(=O)[C@H](Cc1c[nH]c2ccccc12)NC(=O)[C@@H](NC(=O)[C@H](CO)NC(=O)[C@H](CCC(N)=O)NC(=O)CNC(=O)[C@H](CCC(=O)O)NC(=O)C(C)(C)NC(=O)C(C)(C)NC(=O)[C@@H](NC(=O)[C@H](CCC(N)=O)NC(=O)[C@H](C)NC(=O)[C@H](CCCNC(=N)N)NC(=O)[C@@H](NC(=O)[C@H](CCCCN)NC(=O)[C@H](CCC(=O)O)NC(=O)[C@H](CCCNC(=N)N)NC(=O)CNC(=O)[C@H](CCC(=O)O)NC(=O)[C@H](CC(C)C)NC(C)=O)C(C)C)[C@@H](C)CC)[C@@H](C)O)C(N)=O)C(=O)O)C(=O)O)C(=O)O` [compound 177] (Ac-LEGREKVRAQI[Aib][Aib]EGQSTWS[Aib]RKK(Ac)-X12), the Emax stood at 91%. On to `CCCCCCCCCCCCCCCC(=O)N[C@@H](CCC(=O)N[C@@H](CCC(=O)N[C@@H](CCC(=O)NCCOCCOCCOCCOCCOCCOCCOCCOCCOCCOCCOCCOCCC(=O)NCCCC[C@H](NC(=O)[C@H](CCCCNC(C)=O)NC(=O)[C@H](CCCCN)NC(=O)[C@H](CCCNC(=N)N)NC(=O)C(C)(C)NC(=O)[C@H](CO)NC(=O)[C@H](Cc1c[nH]c2ccccc12)NC(=O)[C@@H](NC(=O)[C@H](CO)NC(=O)[C@H](CCCC)NC(=O)CNC(=O)[C@H](CCC(=O)O)NC(=O)C(C)(C)NC(=O)C(C)(C)NC(=O)[C@@H](NC(=O)[C@H](CCCCNC(C)=O)NC(=O)[C@H](C)NC(=O)[C@H](CCCNC(=N)N)NC(=O)[C@@H](NC(=O)[C@H](CCCCN)NC(=O)[C@H](CCC(=O)O)NC(=O)[C@H](CCCNC(=N)N)NC(=O)CNC(=O)[C@H](CCC(=O)O)NC(=O)[C@H](CC(C)C)NC(C)=O)C(C)C)[C@@H](C)CC)[C@@H](C)O)C(N)=O)C(=O)O)C(=O)O)C(=O)O` [compound 66] (Ac-LEGREKVRAK(Ac)I[Aib][Aib]EG[Nle]STWS[Aib]RKK(Ac)K([PEG12-γGlu-γGlu-γGlu-Palmitoyl])-NH2), for which the Emax was found to be 83%.

Consider `CCCCCCCCCCCCCCCCCC(=O)N[C@@H](CCC(=O)N[C@@H](CCC(=O)N[C@@H](CCC(=O)NCCOCCOCC(=O)NCCOCCOCC(=O)NCCOCCOCC(=O)NCCOCCOCC(=O)NCCCC[C@H](NC(=O)[C@H](CCCCNC(C)=O)NC(=O)[C@H](CCCCN)NC(=O)[C@H](CCCNC(=N)N)NC(=O)C(C)(C)NC(=O)[C@H](CO)NC(=O)[C@H](Cc1c[nH]c2ccccc12)NC(=O)[C@@H](NC(=O)[C@H](CO)NC(=O)[C@H](CCCC)NC(=O)CNC(=O)[C@H](CCC(=O)O)NC(=O)C(C)(C)NC(=O)C(C)(C)NC(=O)[C@@H](NC(=O)[C@H](CCCCNC(C)=O)NC(=O)[C@H](C)NC(=O)[C@H](CCCNC(=N)N)NC(=O)[C@@H](NC(=O)[C@H](CCCCN)NC(=O)[C@H](CCC(=O)O)NC(=O)[C@H](CCCNC(=N)N)NC(=O)CNC(=O)[C@H](CCC(=O)O)NC(=O)[C@H](CC(C)C)NC(C)=O)C(C)C)[C@@H](C)CC)[C@@H](C)O)C(N)=O)C(=O)O)C(=O)O)C(=O)O` [compound 90] (Ac-LEGREKVRAK(Ac)I[Aib][Aib]EG[Nle]STWS[Aib]RKK(Ac)K([AEEA-AEEA-AEEA-AEEA-γGlu-γGlu-γGlu-Stearoyl])-NH2), for which the EC50 came out at 0.07 nM and the Emax was 89%.

By EC50 is commonly meant the concentration needed to bring the measured effect to its halfway point. As a reminder, the Emax is the size of the effect at its maximum, as opposed to the concentration needed.
